Experimental data reported in US20230332239A1, “METHODS OF TREATING CANCER” (ASTRAZENECA AB, priority 2019, published 2023).
Values joined by “and” are separate entries in the source; they are usually repeats but may differ in a detail not shown here. Equal values may be shown once.

Columns and labels:
Format in all cases: in vivo, human
[1] = test system: adenosine signalling signature (A2AR); assay: Phase 1A study NCT02740985: adenosine signalling signature scores in pre-dose and on-treatment tumour biopsies
From the text: We scored transcriptome data with the signature using GSVA (60). This method is robust to outlying genes expressed at different orders of magnitude and generates scores amenable to downstream statistical interpretation. We observe a strong linear correlation between signatures representing immune processes/features and tumour purity in TCGA (see FIG. 7). To account for this bias we adjust the signature scores for tumour purity by fitting a linear regression derived from all samples in TCGA versus tumour purity and then applying the following correction:
Immune cell infiltrates were determined with an SVR approach based on CIBERSORT (36) to define relative immune cell abundance. To study the association of adenosine with CD8^+ T cell infiltration we consider CD8 high tumours to be greater than the median of CD8A expression across all samples. All other cell or cell-state signatures were scored using GSVA. NK cell exhaustion was determined using expression of KIR3DL1, KIR3DL2, IL2RA, IL15RA, HAVCR2 and EOMES. Cytotoxicity was determined using the expression of: NKG7, CST7, PRF1, GZMA, GZMB and IFNG. CD8 Exhaustion was determined using the signature provided in (Danaher et al. 2017). IFNG signalling was determined using the signature presented by (Ayers et al. 2017).
(§1) The first-in-human trial, NCT02740985, was conducted to assess safety, PK and pharmacodynamic activity of AZD4635 as monotherapy and in combination with durvalumab in patients with treatment refractory solid tumours. Pre-dose and on-treatment tumour biopsies were collected from 7 subjects who were treated with AZD4635 monotherapy at or below the maximum tolerated dose (MTD) of 100 mg PO daily.
Total RNA was extracted from tumour tissue macrodissected from […] thick FFPE sections using the miRNeasy FFPE Kit (QIAGEN). RNA integrity and quantity were assessed on the TapeStation 2200 using the RNA ScreenTape System (Agilent). […]
The RNA was subsequently analyzed for gene expression using the NanoString nCounter FLEX Analysis System and the commercially available 770-gene, human PanCancer Immune Profiling Panel (NanoString). […]

[2] = Phase 1A study NCT02740985: safety, maximum tolerated dose; details: monotherapy, PO daily, patients with treatment refractory solid tumours
Description: as §1

[3] = test system: prostate cancer; assay: Progression-free survival of prostate cancer patients in phase 1A study of AZD4635, grouped by group I signature
Description: To derive signatures geared toward adenosine-drive prostate cancers, time-series of samples from 96 patients prostate cancer patients enrolled in the phase 1A study of AZD4635 (NCT02740985) were collected and analyzed for gene expression by using the NanoString nCounter FLEX Analysis System and the commercially available 770-gene, human PanCancer Immune Profiling Panel (NanoString). The time series was up to 120 weeks for some patients. Signatures were tested for their concordance with progression-free survival (PFS), where progression is objective disease progression (by PSA recurrence or RECIST 1.1 criteria), or death by any cause in the absence of progression. (A concordance index of 0.5 represents random chance; a concordance index of 1 represents perfect prediction.) The concordance index, in this context, is a measure of how successful a given signature is in predicting PFS; that is, if stratifying patients into ‘adenosine-low’ and ‘adenosine-high’ groups correlated with the adenosine-high group having a longer median PFS than the adenosine-low group (patients with tumors that are more strongly adenosine drive should benefit more from treatment with the A2AR antagonist AZD4635). The stronger that correlation, the greater the concordance index.

SMILES: Cc1cc(-c2nnc(N)nc2-c2ccc(F)cc2)cc(Cl)n1 [AZD4635, 6-(2-chloro-6-methylpyridin-4-yl)-5-(4-fluorophenyl)-1,2,4-triazin-3-amine]
- patients with reduced adenosine scores who also had increases in gene expression signatures of cytolytic activity and IFNG signalling ([1]; of the 5 patients with reduced scores, out of 7 treated): 4 patients
- patients with reduced adenosine signalling scores ([1]; solid tumours, AZD4635 monotherapy once daily at or below MTD, on-treatment vs pre-dose biopsy): 5 of the 7 and 5 of 7
- share of patients with reduced adenosine signalling scores ([1]; solid tumours, AZD4635 once daily, 7 patients): 70%
- maximum tolerated dose (MTD) [2]: 100 mg
- median PFS, adenosine-low group ([3]; p=0.008 vs adenosine-high): 12 weeks
- median PFS, adenosine-high group ([3]; p=0.008 vs adenosine-low): 34 weeks
